The values below come from ChEMBL document CHEMBL1201862, “PubChem BioAssay data set” (2004).

Calls of active or inactive are those of the source.

Assay [1] deals with Streptococcus. Description: GAS UMAA2166 growth inhibition – luminescence, BacTiterGlo, counter-screen for streptokinase expression inhibitor project, dose response (AID 1915).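 Note: potency for reduction of bacterial viability or growth.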 It counts as functional, organism-based. (In general: The purpose of a counterscreen is to sort out artefacts and off-target activity.)
In assay [2] the target is T1, Protein RecA (Mycobacterium tuberculosis, UniProt P9WHJ3).
T1 sequence (P9WHJ3 whole entry): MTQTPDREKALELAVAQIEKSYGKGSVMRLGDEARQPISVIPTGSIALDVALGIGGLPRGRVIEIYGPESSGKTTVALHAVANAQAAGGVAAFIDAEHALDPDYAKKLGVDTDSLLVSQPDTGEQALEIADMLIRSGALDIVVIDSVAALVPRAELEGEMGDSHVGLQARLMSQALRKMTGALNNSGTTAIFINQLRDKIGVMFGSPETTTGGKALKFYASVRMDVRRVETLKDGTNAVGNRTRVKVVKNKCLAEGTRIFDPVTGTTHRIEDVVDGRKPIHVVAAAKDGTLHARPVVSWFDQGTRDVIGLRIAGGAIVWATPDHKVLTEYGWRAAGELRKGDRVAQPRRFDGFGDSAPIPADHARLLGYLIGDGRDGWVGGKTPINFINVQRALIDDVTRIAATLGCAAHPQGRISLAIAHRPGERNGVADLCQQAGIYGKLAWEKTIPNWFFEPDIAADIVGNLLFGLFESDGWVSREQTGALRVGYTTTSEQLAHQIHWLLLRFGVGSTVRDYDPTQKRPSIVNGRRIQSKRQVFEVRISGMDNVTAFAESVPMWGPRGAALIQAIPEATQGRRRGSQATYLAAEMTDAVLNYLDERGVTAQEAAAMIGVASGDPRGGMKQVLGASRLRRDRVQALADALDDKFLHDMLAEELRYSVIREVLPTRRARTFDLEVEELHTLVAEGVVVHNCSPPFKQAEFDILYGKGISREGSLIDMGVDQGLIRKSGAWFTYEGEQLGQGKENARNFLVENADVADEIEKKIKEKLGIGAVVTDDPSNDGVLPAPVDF
Description: Fluorescence Cell-Free Homogeneous Dose Retest to Identify Inhibitors of RecA-Intein Splicing Activity. [Related pubchem assays (depositor defined):AID2097, AID2223, AID489010, AID492950]. It counts as functional.

Assay [3] addresses ATP-dependent molecular chaperone HSP82 (Candida albicans (strain WO-1) (Yeast), UniProt C4YTQ8). Description: steroid-induced GRE reporter decrease in yeast – S. cerevisiae, luminescence, Hsp90 inhibitor project, dose response (AID 2400).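 Note: beta-galactosidase luminescence from glucocorticoid response element reporter as proxy for Hsp90 function; inhibitor potency where signal loss means Hsp90 inhibition.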 It counts as functional, cell-based.
The nature of assay [4]: fluconazole-exposed Candida albicans growth modulators – fluorescence, retest, confirmation (AID 2467). The class given is functional, cell-based.
Assay [5] has as its target T2, Streptokinase A (Streptococcus pyogenes serotype M1, UniProt P10520).
T2 sequence (P10520 whole entry): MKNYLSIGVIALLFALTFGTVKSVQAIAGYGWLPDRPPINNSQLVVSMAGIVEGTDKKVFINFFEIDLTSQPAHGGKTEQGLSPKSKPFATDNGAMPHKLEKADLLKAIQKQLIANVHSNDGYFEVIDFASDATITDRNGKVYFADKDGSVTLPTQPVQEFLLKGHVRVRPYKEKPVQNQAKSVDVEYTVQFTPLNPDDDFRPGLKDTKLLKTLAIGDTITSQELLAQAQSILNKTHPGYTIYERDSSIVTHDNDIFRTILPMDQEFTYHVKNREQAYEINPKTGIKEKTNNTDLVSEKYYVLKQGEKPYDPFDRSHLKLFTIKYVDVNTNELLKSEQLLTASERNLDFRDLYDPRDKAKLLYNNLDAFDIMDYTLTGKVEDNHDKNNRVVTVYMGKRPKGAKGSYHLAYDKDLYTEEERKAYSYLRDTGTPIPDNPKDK
Description: viability-normalized secreted streptokinase activity reduction – plasminogen activation absorbance, OD405, dose response (AID 1914).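 Note: secreted streptokinase activity via plasminogen activation per viability signal from cell pellet.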 It counts as functional, Streptococcus pyogenes M1 GAS.

Assay [6] concerns the target T3, Sentrin-specific protease 8 (Homo sapiens, UniProt Q96LD8).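 Note: luminescence read-out of SENP8 inhibition, dose-response confirmation following an ultra-high-throughput screen.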
T3 sequence (Q96LD8 whole entry): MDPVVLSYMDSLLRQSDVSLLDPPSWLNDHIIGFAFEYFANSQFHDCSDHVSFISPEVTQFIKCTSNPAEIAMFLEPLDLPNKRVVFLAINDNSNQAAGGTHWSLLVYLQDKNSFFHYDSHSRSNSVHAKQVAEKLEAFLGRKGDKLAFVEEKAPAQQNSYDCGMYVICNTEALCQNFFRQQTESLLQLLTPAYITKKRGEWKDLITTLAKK
It counts as functional.

Assay [7] deals with Estrogen receptor beta (Homo sapiens, UniProt Q92731). Description: blockers of SRC-3 recruitment to ERβ – biochemical, ELISA, streptavidin-HRP readout, orthogonal assay, confirmation (AID 1060).
Chain of Estrogen receptor beta (Q92731 whole entry): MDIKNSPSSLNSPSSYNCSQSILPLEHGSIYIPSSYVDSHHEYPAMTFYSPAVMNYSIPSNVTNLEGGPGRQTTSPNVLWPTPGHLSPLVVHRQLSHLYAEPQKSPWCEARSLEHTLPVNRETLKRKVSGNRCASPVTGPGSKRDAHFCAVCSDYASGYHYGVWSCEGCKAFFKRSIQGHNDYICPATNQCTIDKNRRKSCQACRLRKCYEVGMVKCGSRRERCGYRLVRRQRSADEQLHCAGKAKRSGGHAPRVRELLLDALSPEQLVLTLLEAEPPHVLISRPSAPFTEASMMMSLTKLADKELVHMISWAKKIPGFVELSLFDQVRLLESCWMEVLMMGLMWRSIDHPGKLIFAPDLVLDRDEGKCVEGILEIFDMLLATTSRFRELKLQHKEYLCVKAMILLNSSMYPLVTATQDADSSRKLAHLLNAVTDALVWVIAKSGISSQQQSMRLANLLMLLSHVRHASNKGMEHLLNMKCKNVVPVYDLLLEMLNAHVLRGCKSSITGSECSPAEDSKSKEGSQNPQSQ
Assay [8] can be described thus: cells.
Assay [9] has as its target High affinity nerve growth factor receptor (Homo sapiens, UniProt P04629). The class given is functional.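 Note: NTRK1 tested as one member of a kinome-wide profiling panel.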
The target of assay [10] is Cyclin-dependent kinase 5 (Homo sapiens, UniProt Q00535). The class given is functional.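 Note: CDK5 measured as one member of a kinase profiling panel.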
Chain of Cyclin-dependent kinase 5 (Q00535 whole entry): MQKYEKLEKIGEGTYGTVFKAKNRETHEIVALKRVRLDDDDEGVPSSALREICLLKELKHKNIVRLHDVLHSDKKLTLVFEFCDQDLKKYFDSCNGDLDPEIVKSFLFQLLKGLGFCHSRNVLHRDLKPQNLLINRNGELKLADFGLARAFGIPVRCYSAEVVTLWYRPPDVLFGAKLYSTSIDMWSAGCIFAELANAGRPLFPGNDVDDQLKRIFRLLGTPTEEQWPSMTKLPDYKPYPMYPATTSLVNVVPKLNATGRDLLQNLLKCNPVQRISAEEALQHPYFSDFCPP
Assay [11] deals with Vascular endothelial growth factor receptor 2 (Homo sapiens, UniProt P35968). The class given is functional.
Assay [12] deals with Dual specificity mitogen-activated protein kinase kinase 2 (Homo sapiens, UniProt P36507). Kind of assay: Navigating the Kinome. Panel member name: MAP2K2. It counts as functional.
Chain of Dual specificity mitogen-activated protein kinase kinase 2 (P36507 whole entry): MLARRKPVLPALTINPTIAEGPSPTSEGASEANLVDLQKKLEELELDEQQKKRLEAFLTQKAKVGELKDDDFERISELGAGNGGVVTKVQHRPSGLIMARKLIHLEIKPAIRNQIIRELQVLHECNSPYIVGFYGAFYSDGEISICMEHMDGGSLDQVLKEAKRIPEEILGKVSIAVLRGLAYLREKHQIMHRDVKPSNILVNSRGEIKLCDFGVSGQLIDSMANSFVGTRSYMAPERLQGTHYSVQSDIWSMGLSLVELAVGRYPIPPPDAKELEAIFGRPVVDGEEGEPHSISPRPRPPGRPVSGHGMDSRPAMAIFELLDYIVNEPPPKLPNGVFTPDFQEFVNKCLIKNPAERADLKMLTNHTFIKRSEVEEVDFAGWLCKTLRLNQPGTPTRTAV
Assay [13] has as its target Cyclin-dependent kinase 9 (Homo sapiens, UniProt P50750). The class given is functional.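 Note: value from the CDK9 entry of a kinome-spanning kinase panel.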
Assay [14] has as its target 5'-AMP-activated protein kinase catalytic subunit alpha-1 (Homo sapiens, UniProt Q13131). It counts as functional.
The target of assay [15] is Serine/threonine-protein kinase TBK1 (Homo sapiens, UniProt Q9UHD2). Kind of assay: Navigating the Kinome. Panel member name: TBK1. The class given is functional.
The target in assay [16] is Cyclin-dependent kinase 8 (Homo sapiens, UniProt P49336). Kind of assay: Navigating the Kinome. Panel member name: CDK8. The class given is functional.
Assay [17] addresses Receptor-type tyrosine-protein kinase FLT3 (Homo sapiens, UniProt P36888). It counts as functional.
For assay [18], the target named is Serine/threonine-protein kinase D3 (Homo sapiens, UniProt O94806). It counts as functional.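 Note: determined within a kinase panel screen, with PRKCN as the panel member.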
Assay [19] has as its target Glycogen synthase kinase-3 alpha (Homo sapiens, UniProt P49840). It counts as functional.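 Note: GSK3A result taken from a broad kinome-wide kinase panel.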
Assay [20] concerns the target Leukocyte tyrosine kinase receptor (Homo sapiens, UniProt P29376). Kind of assay: Navigating the Kinome. Panel member name: LTK. The class given is functional.
Assay [21] deals with cAMP-dependent protein kinase catalytic subunit alpha (Homo sapiens, UniProt P17612). It counts as functional.
Assay [22] has as its target cAMP-dependent protein kinase catalytic subunit PRKX (Homo sapiens, UniProt P51817). The class given is functional.
Assay [23] addresses Ribosomal protein S6 kinase alpha-3 (Homo sapiens, UniProt P51812). It counts as functional.
In assay [24] the target is BDNF/NT-3 growth factors receptor (Homo sapiens, UniProt Q16620). The class given is functional.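 Note: NTRK2 measured as one member of a broad kinome-wide kinase profiling panel.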
Assay [25] has as its target Tyrosine-protein kinase receptor TYRO3 (Homo sapiens, UniProt Q06418). It counts as functional.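 Note: TYRO3 value obtained as one member of a kinome-wide profiling panel.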

Chain of 5'-AMP-activated protein kinase catalytic subunit alpha-1 (Q13131 whole entry): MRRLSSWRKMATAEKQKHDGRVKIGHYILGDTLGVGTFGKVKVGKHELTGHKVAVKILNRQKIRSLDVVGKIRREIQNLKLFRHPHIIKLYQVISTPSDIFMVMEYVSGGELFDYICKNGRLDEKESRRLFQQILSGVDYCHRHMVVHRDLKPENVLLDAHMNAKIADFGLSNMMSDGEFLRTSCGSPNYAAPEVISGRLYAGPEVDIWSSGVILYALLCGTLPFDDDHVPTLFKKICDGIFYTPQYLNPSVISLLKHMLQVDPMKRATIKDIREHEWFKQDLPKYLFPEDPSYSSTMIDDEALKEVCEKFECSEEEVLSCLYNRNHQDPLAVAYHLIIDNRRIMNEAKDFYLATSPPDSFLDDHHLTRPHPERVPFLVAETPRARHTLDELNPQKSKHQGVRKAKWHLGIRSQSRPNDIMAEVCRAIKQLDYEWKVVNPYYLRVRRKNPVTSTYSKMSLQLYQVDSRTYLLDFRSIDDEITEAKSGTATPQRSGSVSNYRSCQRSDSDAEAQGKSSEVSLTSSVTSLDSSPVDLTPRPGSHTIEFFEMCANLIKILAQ
Chain of Receptor-type tyrosine-protein kinase FLT3 (P36888 whole entry): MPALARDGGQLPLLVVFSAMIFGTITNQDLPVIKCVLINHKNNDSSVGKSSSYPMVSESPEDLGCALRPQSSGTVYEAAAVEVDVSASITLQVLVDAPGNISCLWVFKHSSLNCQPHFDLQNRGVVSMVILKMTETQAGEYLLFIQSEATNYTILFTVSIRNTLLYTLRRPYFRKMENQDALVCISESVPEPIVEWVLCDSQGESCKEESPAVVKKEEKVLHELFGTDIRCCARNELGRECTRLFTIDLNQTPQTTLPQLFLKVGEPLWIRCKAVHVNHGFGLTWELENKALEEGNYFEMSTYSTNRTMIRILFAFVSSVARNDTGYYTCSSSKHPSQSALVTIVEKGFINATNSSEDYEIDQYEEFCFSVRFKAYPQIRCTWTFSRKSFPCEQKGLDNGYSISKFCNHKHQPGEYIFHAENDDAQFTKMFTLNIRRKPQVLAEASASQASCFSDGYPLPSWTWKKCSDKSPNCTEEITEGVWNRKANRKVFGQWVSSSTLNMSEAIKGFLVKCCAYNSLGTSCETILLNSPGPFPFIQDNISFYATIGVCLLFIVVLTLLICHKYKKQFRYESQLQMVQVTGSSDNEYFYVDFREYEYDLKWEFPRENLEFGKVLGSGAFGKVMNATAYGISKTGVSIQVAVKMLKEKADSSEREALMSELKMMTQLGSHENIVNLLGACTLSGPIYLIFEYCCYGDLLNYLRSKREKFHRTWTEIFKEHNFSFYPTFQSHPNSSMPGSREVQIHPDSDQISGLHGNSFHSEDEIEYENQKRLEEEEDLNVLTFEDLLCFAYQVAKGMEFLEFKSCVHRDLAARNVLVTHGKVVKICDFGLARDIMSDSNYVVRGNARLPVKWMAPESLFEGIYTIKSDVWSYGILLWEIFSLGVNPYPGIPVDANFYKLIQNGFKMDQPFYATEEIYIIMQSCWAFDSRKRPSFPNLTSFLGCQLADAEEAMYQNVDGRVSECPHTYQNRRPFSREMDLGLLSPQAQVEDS
Chain of Cyclin-dependent kinase 9 (P50750 whole entry): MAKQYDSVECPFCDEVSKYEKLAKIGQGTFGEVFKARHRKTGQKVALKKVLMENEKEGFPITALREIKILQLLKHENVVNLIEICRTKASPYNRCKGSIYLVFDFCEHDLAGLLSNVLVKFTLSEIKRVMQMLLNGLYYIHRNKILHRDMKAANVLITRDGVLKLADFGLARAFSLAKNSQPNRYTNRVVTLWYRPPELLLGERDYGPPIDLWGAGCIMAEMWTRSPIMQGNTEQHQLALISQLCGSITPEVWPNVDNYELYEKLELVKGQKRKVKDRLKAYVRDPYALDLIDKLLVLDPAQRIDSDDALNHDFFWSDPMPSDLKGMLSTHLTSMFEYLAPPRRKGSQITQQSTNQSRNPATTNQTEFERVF
Chain of Tyrosine-protein kinase receptor TYRO3 (Q06418 whole entry): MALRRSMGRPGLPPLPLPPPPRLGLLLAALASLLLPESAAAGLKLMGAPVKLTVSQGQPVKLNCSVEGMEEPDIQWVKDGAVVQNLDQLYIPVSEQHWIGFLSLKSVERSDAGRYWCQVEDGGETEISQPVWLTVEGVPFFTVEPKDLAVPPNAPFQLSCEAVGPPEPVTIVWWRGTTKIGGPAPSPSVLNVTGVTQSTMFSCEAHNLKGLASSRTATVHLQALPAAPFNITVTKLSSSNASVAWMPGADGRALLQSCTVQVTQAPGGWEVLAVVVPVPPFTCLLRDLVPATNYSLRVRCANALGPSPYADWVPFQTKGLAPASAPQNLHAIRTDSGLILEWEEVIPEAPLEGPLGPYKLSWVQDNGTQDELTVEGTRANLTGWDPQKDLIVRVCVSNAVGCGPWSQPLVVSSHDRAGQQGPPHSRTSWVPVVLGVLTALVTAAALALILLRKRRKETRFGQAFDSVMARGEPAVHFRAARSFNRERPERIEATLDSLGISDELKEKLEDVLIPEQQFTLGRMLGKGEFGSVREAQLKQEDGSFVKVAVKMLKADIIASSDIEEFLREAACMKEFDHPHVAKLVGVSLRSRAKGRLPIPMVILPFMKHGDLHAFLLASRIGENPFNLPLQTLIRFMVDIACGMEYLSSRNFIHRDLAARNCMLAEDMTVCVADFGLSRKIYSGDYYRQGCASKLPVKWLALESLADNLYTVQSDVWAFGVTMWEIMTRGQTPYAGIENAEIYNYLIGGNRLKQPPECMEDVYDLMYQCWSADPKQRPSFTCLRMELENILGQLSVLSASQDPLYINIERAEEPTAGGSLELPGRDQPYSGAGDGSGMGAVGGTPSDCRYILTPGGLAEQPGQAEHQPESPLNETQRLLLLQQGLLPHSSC
Chain of Leukocyte tyrosine kinase receptor (P29376 whole entry): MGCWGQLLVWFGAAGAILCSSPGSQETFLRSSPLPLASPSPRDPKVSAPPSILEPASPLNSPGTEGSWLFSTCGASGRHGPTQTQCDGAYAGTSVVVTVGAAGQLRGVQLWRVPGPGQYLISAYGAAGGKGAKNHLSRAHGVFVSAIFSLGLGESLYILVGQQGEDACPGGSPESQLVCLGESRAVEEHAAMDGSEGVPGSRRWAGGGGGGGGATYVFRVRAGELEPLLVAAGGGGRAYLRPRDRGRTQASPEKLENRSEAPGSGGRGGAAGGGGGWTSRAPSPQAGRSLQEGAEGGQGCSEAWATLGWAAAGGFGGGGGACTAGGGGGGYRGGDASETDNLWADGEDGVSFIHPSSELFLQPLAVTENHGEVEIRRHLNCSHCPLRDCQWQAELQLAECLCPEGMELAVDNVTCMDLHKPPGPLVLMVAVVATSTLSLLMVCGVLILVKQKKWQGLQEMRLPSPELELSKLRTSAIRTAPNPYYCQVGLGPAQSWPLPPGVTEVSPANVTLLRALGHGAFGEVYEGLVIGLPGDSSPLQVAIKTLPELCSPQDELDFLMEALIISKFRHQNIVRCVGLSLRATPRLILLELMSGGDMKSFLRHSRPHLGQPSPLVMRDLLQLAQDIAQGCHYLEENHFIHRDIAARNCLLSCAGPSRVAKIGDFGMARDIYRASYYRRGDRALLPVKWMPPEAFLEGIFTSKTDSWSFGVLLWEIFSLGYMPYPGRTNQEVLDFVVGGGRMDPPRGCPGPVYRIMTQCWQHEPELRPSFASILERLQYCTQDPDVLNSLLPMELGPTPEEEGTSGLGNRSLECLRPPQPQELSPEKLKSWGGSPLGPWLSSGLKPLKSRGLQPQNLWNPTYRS

One may read the EC50 as the concentration at which the effect is half-maximal. As to `CN1CCN(C(c2ccc(C(F)(F)F)cc2)c2cc(Cl)c3cccnc3c2O)CC1` (stereo not given), the EC50 in assay [1] is 6.51 µM (active); in [2] it was 0.932 µM (active); in [3], 6.72 µM (active); in [4], 0.666 µM (active); in assay [5], > 150 µM (not active).

One may read the IC50 as the concentration that inhibits the measured activity by half. As to `NC(=O)c1c(NC(=O)c2cc3ccccc3o2)sc2c1CCC2`, the IC50 in assay [6] was 12.4 µM (active); in assay [7], 0.0552 µM (not active). Moreover, the EC50 in assay [8] was > 67.5 µM (inactive).

As usually defined, the Ki is a dissociation constant, usually derived from enzyme kinetics or from competition with a known ligand. `O=C(NC(CCO)c1ccccc1)c1ccc(-c2ccncc2)cc1` (stereo not given): the Ki in [9] was > 3.16 µM (inactive); in [10] it was > 3.16 µM (inactive); in assay [11], > 2.51 µM (inactive); in assay [12] it was > 3.98 µM (inactive); in assay [13], > 1.58 µM (inactive); in assay [14], > 3.16 µM (inactive). Moreover, the Ki in assay [15] was > 3.16 µM (inactive); in assay [16] it was 2.51 µM (active); in [17] it was > 3.16 µM (inactive); in [18], > 3.98 µM (inactive); in [19], 1.26 µM (active); in assay [20], > 2.51 µM (inactive). The Ki in assay [21] was 0.0316 µM (active); in [22], 0.316 µM (active); in assay [23], > 3.98 µM (inactive); in assay [24], > 3.98 µM (inactive); in assay [25] it was > 3.16 µM (inactive).
